Reference: the supplement of paper PMC5908809

Tests used:
[1] = tested on: normal NK cells expanded with K562-aAPC; assay: percent inhibition of viability; higher = more inhibition; details: 72 h, IL-2 2.5 ng/mL
Experimental: (§1)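 Drug sensitivity and resistance testing on K562-aAPC-expanded normal NK cells: 5 concentrations (10-fold steps over a 10,000-fold range), 72 h at 37 °C, viability by CellTiter-Glo normalised to DMSO and benzethonium chloride controls; DSS from the fitted curve.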

[2] = tested on: DERL-7 (IL-2 2.5 ng/mL); assay: as above; details: 72 h
[3] = tested on: IMC-1 (IL-2 20 ng/mL); assay: as above; details: 72 h
[4] = tested on: KAI3 (IL-2 2.5 ng/mL); assay: as above; details: 72 h
[5] = tested on: KHYG-1 (IL-2 2.5 ng/mL); assay: as above; details: 72 h
[6] = tested on: NK-92 (IL-2 2.5 ng/mL); assay: as above; details: 72 h
[7] = tested on: NK-YS (IL-2 2.5 ng/mL); assay: as above; details: 72 h
[8] = tested on: NKL (IL-2 2.5 ng/mL); assay: as above; details: 72 h
[9] = tested on: SNK-6 (IL-2 2.5 ng/mL); assay: as above; details: 72 h
[10] = tested on: YT (IL-2 2.5 ng/mL); assay: as above; details: 72 h
[11] = tested on: normal primary NK cells, pool 1 (3 donors) (IL-2 2.5 ng/mL); assay: as above; details: 72 h
[12] = tested on: normal primary NK cells, pool 1 (3 donors), resting (IL-2 0 ng/mL); assay: as above; details: 72 h
[13] = tested on: normal primary NK cells, pool 2 (3 donors) (IL-2 2.5 ng/mL); assay: as above; details: 72 h
[14] = tested on: normal primary NK cells, pool 3 (3 donors) (IL-2 2.5 ng/mL); assay: as above; details: 72 h
[15] = tested on: normal NK cells expanded with K562-aAPC; assay: drug sensitivity score (DSS) (DSS units); higher = more sensitive; extreme values may be limits of the assay; details: 72 h; IL-2 2.5 ng/mL
Experimental: as §1

[16] = tested on: DERL-7 (IL-2 2.5 ng/mL); assay: as above; details: 72 h
[17] = tested on: IMC-1 (IL-2 20 ng/mL); assay: as above; details: 72 h
[18] = tested on: KAI3 (IL-2 2.5 ng/mL); assay: as above; details: 72 h
[19] = tested on: KHYG-1 (IL-2 2.5 ng/mL); assay: as above; details: 72 h
[20] = tested on: NK-92 (IL-2 2.5 ng/mL); assay: as above; details: 72 h
[21] = tested on: NK-YS (IL-2 2.5 ng/mL); assay: as above; details: 72 h
[22] = tested on: NKL (IL-2 2.5 ng/mL); assay: as above; details: 72 h
[23] = tested on: SNK-6 (IL-2 2.5 ng/mL); assay: as above; details: 72 h
[24] = tested on: YT (IL-2 2.5 ng/mL); assay: as above; details: 72 h
[25] = tested on: normal primary NK cells, pool 1 (3 donors) (IL-2 2.5 ng/mL); assay: as above; details: 72 h
[26] = tested on: normal primary NK cells, pool 1 (3 donors), resting (IL-2 0 ng/mL); assay: as above; details: 72 h
[27] = tested on: normal primary NK cells, pool 2 (3 donors) (IL-2 2.5 ng/mL); assay: as above; details: 72 h
[28] = tested on: normal primary NK cells, pool 3 (3 donors) (IL-2 2.5 ng/mL); assay: as above; details: 72 h

O=C(/C=C/c1cccnc1)NCCCCC1CCN(C(=O)c2ccccc2)CC1 [Daporinad] (max concentration tested 1000 nM)
percent inhibition of viability [%]
Details	0.1 nM	1 nM	10 nM	100 nM	1000 nM
[1]	-5.42	-8.02	95.3	98.9	99.5
[2]	-1.42	36.4	98.7	99.8	101
[3]	-4.3	-0.58	95.2	101	99.6
[4]	0.04	4.42	89.6	104	107
[5]	-4.62	0.47	102	108	110
[6]	-12.4	-11	78.5	107	110
[7]	-0.02	65.7	101	107	109
[8]	-7.99	8.6	96.8	106	109
[9]	-2.25	67.5	98.8	101	101
[10]	-3.84	3.35	72	106	109
[11]	3.25	78.4	97.4	98.2	98.6
[12]	19.1	78.8	93.6	93.4	94.4
[13]	1.47	71.4	96.2	96.4	95.7
[14]	0.86	57.3	98.6	99.3	100

Details	drug sensitivity score
[15]	29.2
[16]	35.4
[17]	29.8
[18]	29.3
[19]	30.7
[20]	26.9
[21]	38.1
[22]	31.6
[23]	38.3
[24]	26.6
[25]	39.6
[26]	40.4
[27]	37.9
[28]	37.3

O=C(Nc1ccncc1)C(=O)c1cn(Cc2ccc(Cl)cc2)c2ccccc12 [Indibulin] (max concentration tested 10000 nM)
percent inhibition of viability [%]
Details	1 nM	10 nM	100 nM	1000 nM	10000 nM
[1]	0.45	-0.15	0.03	26.6	49.8
[2]	0.04	6.67	4.75	46.8	89.2
[3]	-3.14	0.7	4.01	92.4	98.2
[4]	3.69	14.7	33	55.2	49.6
[5]	-4.72	2.71	48.2	102	96
[6]	-6.37	25.8	53.4	90.8	88.7
[7]	-6.38	5.31	41.8	72.1	62.7
[8]	-12.2	-11.9	51.8	86.5	83.6
[9]	23.1	63.2	78.4	84	80.9
[10]	-4.48	2.55	34.7	90.4	92
[11]	-10.2	-6.02	-8.45	-10.4	-3.72
[12]	-7.61	-0.32	20.6	8.83	10.7
[13]	-0.63	-6.55	0.37	1.94	2.69
[14]	-1.93	-8.2	1.19	5.32	11.4

Details	drug sensitivity score
[15]	5.97
[16]	10.5
[17]	17.3
[18]	14.6
[19]	24
[20]	24.3
[21]	18.2
[22]	21.9
[23]	35
[24]	20.8
[25]	0
[26]	0.77
[27]	0
[28]	0.07

CCOC(=O)CCNc1cc(N2CCc3ccccc3CC2)nc(-c2ccccn2)n1 [GSK-J4] (max concentration tested 100000 nM)
percent inhibition of viability [%]
Details	10 nM	100 nM	1000 nM	10000 nM	100000 nM
[1]	-1.25	-3.45	-1.63	93.7	99.5
[2]	-0.14	7.18	14.4	93.4	99.4
[3]	-5.61	-2.96	39.7	97	100
[4]	-4.58	1.93	2.78	94.3	98.9
[5]	-1.03	-1.4	20	101	99.2
[6]	-9.95	-0.92	60.9	104	98.1
[7]	-1.22	-3.86	-1.41	98.6	99.6
[8]	-0.55	-7.46	-8.29	104	98.2
[9]	-0.34	7.09	6.11	94.8	99.7
[10]	-1.98	-3.85	4.52	104	99.3
[11]	-2.65	-4.87	13.6	97.9	99.8
[12]	-7.04	-16	34.7	96.2	99
[13]	-5.62	-2.09	5.39	92.4	98.7
[14]	-2.08	-5.17	19.9	94	99.5

Details	drug sensitivity score
[15]	16.9
[16]	18.9
[17]	22.9
[18]	17.5
[19]	21.2
[20]	25.2
[21]	17.6
[22]	17.6
[23]	18.1
[24]	18.9
[25]	20.2
[26]	22.6
[27]	17.5
[28]	19.8
